{"source": "patent US4379155A", "about": "“3,5-Disubstituted-1H-1,2,4-triazole derivatives” (priority 1981, dated 1983)"}
{"test_system": "hamsters", "assay": "Post-coital antifertility activity in pregnant hamsters, subcutaneous (days 4-8, autopsy day 14)", "type": "in vivo, Syrian golden hamsters", "conditions": "10 mg/kg s.c. daily for 5 days, days 4-8 of pregnancy, sesame oil", "procedure": "Representative experiments for assessing antifertility activity were carried out with femal Syrian golden hamsters weighing 100 to 130 g. The animals were mated and the presence of sperm in the vagina was taken as evidence of mating. […] Pregnancy was later confirmed at the time of autopsy by presence of fetuses or implantation sites in the uterus. Even if an animal aborts the fetus, implantation scars still remain as evidence that the animal has been pregnant.\nThe animals were autopsied on day 14 of pregnancy and the uteri were examined for evidence of pregnancy (implantation sites, fetal resorptions or live fetuses), hemorrage, and evidence of abnormalities of the uterus, placenta or fetuses."}
{"smiles": "c1ccc(-c2n[nH]c(-c3ccccc3)n2)cc1", "note": "[3,5-diphenyl-1H-1,2,4-triazole, reference compound]", "antifertility activity (active: reduction of live fetuses in at least 60% of the treated animals)": "much less active"}
{"smiles": "COc1cccc(-c2n[nH]c(-c3ccccc3C)n2)c1", "note": "[Example 1, 3-(m-Methoxyphenyl)-5-(o-tolyl)-1H-1,2,4-triazole]", "antifertility activity (active: reduction of live fetuses in at least 60% of the treated animals)": "active"}
{"smiles": "COc1ccccc1-c1n[nH]c(-c2ccccc2C)n1", "note": "[Example 4, 3-(o-Methoxyphenyl)-5-(o-tolyl)-1H-1,2,4-triazole]", "antifertility activity (active: reduction of live fetuses in at least 60% of the treated animals)": "active"}
{"smiles": "CCc1ccccc1-c1nc(-c2cccc(F)c2)n[nH]1", "note": "[Example 18, 5-(o-Ethylphenyl)-3-(m-fluorophenyl)-1H-1,2,4-triazole]", "antifertility activity (active: reduction of live fetuses in at least 60% of the treated animals)": "active"}
{"smiles": "CCc1ccccc1-c1nc(-c2ccc3c(c2)OCO3)n[nH]1", "note": "[Example 22, 5-(o-Ethylphenyl)-3-(3,4-methylenedioxyphenyl)-1H-1,2,4-triazole]", "antifertility activity (active: reduction of live fetuses in at least 60% of the treated animals)": "active"}
{"smiles": "Cc1ccc(-c2nc(-c3ccccc3)n[nH]2)c(C)c1", "note": "[Example 25, 5-(2,4-Dimethylphenyl)-3-phenyl-1H-1,2,4-triazole]", "antifertility activity (active: reduction of live fetuses in at least 60% of the treated animals)": "active"}
{"smiles": "COc1cccc(-c2n[nH]c(-c3ccc(C)cc3C)n2)c1", "note": "[Example 26, 5-(2,4-Dimethylphenyl)-3-(m-methoxyphenyl)-1H-1,2,4-triazole]", "antifertility activity (active: reduction of live fetuses in at least 60% of the treated animals)": "active"}
{"smiles": "Cc1cc(Cl)ccc1-c1nc(-c2ccccc2)n[nH]1", "note": "[Example 29, 5-(4-Chloro-2-methylphenyl)-3-phenyl-1H-1,2,4-triazole]", "antifertility activity (active: reduction of live fetuses in at least 60% of the treated animals)": "active"}
{"smiles": "COc1cccc(-c2n[nH]c(-c3ccc(Cl)cc3C)n2)c1", "note": "[Example 30, 5-(4-Chloro-2-methylphenyl)-3-(m-methoxyphenyl)-1H-1,2,4-triazole]", "antifertility activity (active: reduction of live fetuses in at least 60% of the treated animals)": "active"}
{"smiles": "COc1cccc(-c2n[nH]c(-c3cc(Cl)ccc3C)n2)c1", "note": "[Example 32, 5-(5-Chloro-2-methylphenyl)-3-(m-methoxyphenyl)-1H-1,2,4-triazole]", "antifertility activity (active: reduction of live fetuses in at least 60% of the treated animals)": "active"}
{"test_system": "rats", "assay": "Anti-reproductive activity in pregnant rats, subcutaneous (5 days from day 6, autopsy day 16)", "type": "in vivo, Sprague-Dawley rats", "conditions": "Rattus norvegicus, sc, 384 h, 20 mg/kg s.c., five consecutive days from day 6 of pregnancy, sesame oil, read-out: reduction of live fetuses, % of the treated rats", "procedure": "The same criteria and experimental conditions as above were also applied when the anti-reproductive activity of the compounds of the invention was investigated in other animal species such as, for instance, rats, dogs, monkeys and baboons. In representative experiments, female Sprague-Dawley rats weighing from 200 to 300 g. were treated subcutaneously with a dosage of 20 mg/kg of the compound to be tested, dissolved in sesame oil, for five consecutive days starting from day 6 of pregnancy.", "units": {"responders at 20 mg/kg": "%"}}
{"smiles": "CCOc1cccc(-c2n[nH]c(-c3ccccc3C)n2)c1", "note": "[Example 9, 3-(m-Ethoxyphenyl)-5-(o-tolyl)-1H-1,2,4-triazole]", "responders at 20 mg/kg": "≥ 60"}
{"smiles": "C=CCOc1cccc(-c2n[nH]c(-c3ccccc3C)n2)c1", "note": "[Example 10, 3-(m-Allyloxyphenyl)-5-(o-tolyl)-1H-1,2,4-triazole]", "responders at 20 mg/kg": "≥ 60"}
{"smiles": "Cc1ccccc1-c1nc(-c2ccc(-c3ccccc3)cc2)n[nH]1", "note": "[Example 11, 3-(1,1'-Biphenyl-4-yl)-5-(o-tolyl)-1H-1,2,4-triazole]", "responders at 20 mg/kg": "≥ 60"}
{"smiles": "C=CCOc1cccc(-c2n[nH]c(-c3ccccc3CC)n2)c1", "note": "[Example 13, 3-(m-Allyloxyphenyl)-5-(o-ethylphenyl)-1H-1,2,4-triazole]", "responders at 20 mg/kg": "≥ 60"}
{"smiles": "CCc1ccccc1-c1nc(-c2ccc(Cl)cc2)n[nH]1", "note": "[Example 14, 3-(p-Chlorophenyl)-5-(o-ethylphenyl)-1H-1,2,4-triazole]", "responders at 20 mg/kg": "≥ 60"}
{"smiles": "CC(C)c1ccccc1-c1nc(-c2ccccc2)n[nH]1", "note": "[Example 15, 5-(o-Isopropylphenyl)-3-phenyl-1H-1,2,4-triazole]", "responders at 20 mg/kg": "≥ 60"}
{"smiles": "COc1cccc(-c2n[nH]c(-c3ccccc3C(C)C)n2)c1", "note": "[Example 16, 5-(o-Isopropylphenyl)-3-(m-methoxyphenyl)-1H-1,2,4-triazole]", "responders at 20 mg/kg": "≥ 60"}
